Laboratory results as given in paper PMC6104605, “Discovery of new chromen-4-one derivatives as telomerase inhibitors through regulating expression of dyskerin” (Journal of Enzyme Inhibition and Medicinal Chemistry, 2018).
Where two headings read alike, the source gives them in different places.

Key:
human glioma cell U87 = assay: MTT anticancer assay, U87; type: cell-based; conditions: 48 h exposure, mean ± SD, dash = footnote d 'None'
Experimental: (§1) The MTT was purchased from Sigma. Cell Cycle Analysis Kit and Apoptosis Analysis Kit were purchased from Bestbio (China). Mitochondrial membrane potential assay kit with JC-1 was purchased from Beyotime (China). All the materials were used as received without further purification unless noted specifically. The cell culture was maintained on DMEM medium (Hyclone, US) supplemented with 10% fetal bovine serum (Sijiqing, China), 100 U/mL penicillin and 100 µg/mL streptomycin in 25-cm^2 culture flasks at 37 °C humidified atmosphere with 5% CO2. Drugs were dissolved in DMSO and filtered through 0.22-µm pore-size filter units before addition to cell line appropriate media. When tumor cells were grown to log phase, diluting to 5 × 10^4 cells mL^−1 with the complete medium, 100 µL of the obtained cell suspension was added to each well of 96-well culture plates. The subsequent incubation was performed at 37 °C, 5% CO2 atmosphere for 48 h before subjecting to anti-proliferation assessment. After 48-h exposure period, 20 µL of PBS containing 5 mg·mL^−1 of MTT was added to each well. After 4 h, the medium was replaced by 150 µL DMSO to dissolve the purple formazan crystals produced. The absorbance at 492 nm of each well was measured on an ELISA plate reader. The data represented the mean of three experiments in triplicate and were expressed as means ± SD. The IC50 value was defined as the concentration at which 50% of the cells could survive. The following human tumor cell lines were used in the assay: human gastric cancer cells SGC-7901, human liver cancer cell SMMC-7721 and HepG2, human cervical cancer cell Hela and human glioma cell U87.

[1] = tested on: human liver cancer cell HepG2; assay: MTT anticancer assay, HepG2; type: cell-based; conditions: 48 h exposure, mean ± SD, dash = footnote d 'None'
Experimental: as §1

[2] = tested on: human cervical cancer cell Hela; assay: MTT anticancer assay, Hela; type: cell-based; conditions: read-out: IC50 Hela
Experimental: as §1, with “The absorbance at 492 nm of each well was measured on an ELISA plate reader.” left out, “SD.” for “SD. The IC50 value was defined as the concentration at which 50% of the cells could survive. The following human tumor cell lines were used in the assay: human gastric cancer cells SGC-7901, human liver cancer cell SMMC-7721 and HepG2, human cervical cancer cell Hela and human glioma cell U87.”

[3] = tested on: human gastric cancer cells SGC-7901; assay: MTT anticancer assay, SGC-7901; type: cell-based; conditions: for IC50: Homo sapiens, SGC-7901, MTT, 48 h exposure, mean ± SD
Experimental: as §1, with “The absorbance at 492 nm of each well was measured on an ELISA plate reader.” left out, “SD.” for “SD. The IC50 value was defined as the concentration at which 50% of the cells could survive. The following human tumor cell lines were used in the assay: human gastric cancer cells SGC-7901, human liver cancer cell SMMC-7721 and HepG2, human cervical cancer cell Hela and human glioma cell U87.”

[4] = tested on: human liver cancer cell SMMC-7721; assay: MTT anticancer assay, SMMC-7721; type: cell-based; conditions: 48 h exposure, mean ± SD
Experimental: as §1

telomerase = molecular target: T1, telomerase (Homo sapiens, UniProt O14746); assay: Telomerase activity assay (TRAP-PCR-ELISA); type: biochemical; conditions: SGC-7901 cells extracts, 24-h treatment, mean ± SD
T1 construct: endogenous in cells; host or cells: SGC-7901
T1 sequence (O14746 whole entry): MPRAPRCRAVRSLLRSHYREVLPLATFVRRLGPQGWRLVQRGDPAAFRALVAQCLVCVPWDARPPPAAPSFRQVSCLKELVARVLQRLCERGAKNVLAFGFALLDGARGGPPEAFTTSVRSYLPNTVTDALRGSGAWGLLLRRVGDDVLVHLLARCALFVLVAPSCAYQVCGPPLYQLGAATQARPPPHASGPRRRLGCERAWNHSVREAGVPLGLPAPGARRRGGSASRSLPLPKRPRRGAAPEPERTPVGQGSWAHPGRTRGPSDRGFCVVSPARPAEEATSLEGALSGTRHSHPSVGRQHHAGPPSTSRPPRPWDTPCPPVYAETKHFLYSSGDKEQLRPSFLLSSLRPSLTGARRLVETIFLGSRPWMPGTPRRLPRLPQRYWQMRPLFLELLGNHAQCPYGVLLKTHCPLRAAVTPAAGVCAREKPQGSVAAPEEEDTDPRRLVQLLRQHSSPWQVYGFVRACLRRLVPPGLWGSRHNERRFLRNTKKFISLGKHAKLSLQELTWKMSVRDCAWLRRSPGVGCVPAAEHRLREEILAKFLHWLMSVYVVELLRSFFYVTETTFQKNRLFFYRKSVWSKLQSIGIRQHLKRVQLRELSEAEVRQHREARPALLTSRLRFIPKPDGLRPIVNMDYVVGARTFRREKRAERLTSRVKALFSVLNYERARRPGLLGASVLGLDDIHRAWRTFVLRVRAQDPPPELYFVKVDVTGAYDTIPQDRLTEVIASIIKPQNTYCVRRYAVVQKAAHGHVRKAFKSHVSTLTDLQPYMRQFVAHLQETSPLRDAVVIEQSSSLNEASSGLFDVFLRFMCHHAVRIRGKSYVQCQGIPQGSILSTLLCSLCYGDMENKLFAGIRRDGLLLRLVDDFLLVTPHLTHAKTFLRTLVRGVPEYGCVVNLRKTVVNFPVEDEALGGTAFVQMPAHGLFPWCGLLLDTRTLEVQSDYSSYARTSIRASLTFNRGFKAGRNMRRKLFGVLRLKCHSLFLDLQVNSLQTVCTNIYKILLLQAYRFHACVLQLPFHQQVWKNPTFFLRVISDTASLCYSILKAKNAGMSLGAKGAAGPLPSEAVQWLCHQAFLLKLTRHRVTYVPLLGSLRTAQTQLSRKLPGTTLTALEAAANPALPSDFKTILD
T1 sequence (O60832 whole entry partner): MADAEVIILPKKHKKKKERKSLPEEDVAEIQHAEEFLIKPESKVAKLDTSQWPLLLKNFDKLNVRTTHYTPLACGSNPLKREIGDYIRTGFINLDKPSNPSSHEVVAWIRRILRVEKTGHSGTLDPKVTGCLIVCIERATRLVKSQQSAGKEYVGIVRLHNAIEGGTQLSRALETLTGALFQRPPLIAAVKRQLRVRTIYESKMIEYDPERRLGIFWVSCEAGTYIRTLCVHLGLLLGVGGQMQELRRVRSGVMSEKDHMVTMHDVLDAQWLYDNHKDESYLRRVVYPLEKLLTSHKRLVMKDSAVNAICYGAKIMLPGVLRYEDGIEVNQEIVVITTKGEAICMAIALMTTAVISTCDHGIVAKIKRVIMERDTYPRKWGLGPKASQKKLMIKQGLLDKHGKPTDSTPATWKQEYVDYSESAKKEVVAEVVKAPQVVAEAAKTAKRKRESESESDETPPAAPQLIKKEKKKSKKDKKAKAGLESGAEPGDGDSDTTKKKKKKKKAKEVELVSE
T1 sequence (Q9NX24 whole entry partner): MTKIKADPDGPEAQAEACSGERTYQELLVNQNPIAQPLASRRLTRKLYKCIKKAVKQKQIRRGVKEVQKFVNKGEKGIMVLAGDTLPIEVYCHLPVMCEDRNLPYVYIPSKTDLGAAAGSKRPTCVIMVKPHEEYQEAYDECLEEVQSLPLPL
T1 sequence (Q9NPE3 whole entry partner): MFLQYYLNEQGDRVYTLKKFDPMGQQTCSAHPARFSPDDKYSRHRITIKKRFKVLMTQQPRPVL
T1 sequence (Q9NY12 whole entry partner): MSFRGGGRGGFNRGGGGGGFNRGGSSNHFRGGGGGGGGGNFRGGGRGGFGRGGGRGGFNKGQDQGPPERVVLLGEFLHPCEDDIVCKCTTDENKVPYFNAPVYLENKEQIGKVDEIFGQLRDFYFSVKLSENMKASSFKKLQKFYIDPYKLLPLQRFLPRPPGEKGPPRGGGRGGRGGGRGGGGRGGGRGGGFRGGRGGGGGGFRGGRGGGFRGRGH
Experimental: Inhibit of telomerase activity was tested using the TRAP-PCR-ELISA assay. In detail, the SGC-7901 cells were firstly maintained in DMEM medium (GIBCO, New York) supplemented with 10% fetal bovineserum (GIBCO, NewYork), streptomycin (0.1 mg/mL) and penicillin (100 IU/mL) at 37 °C in a humidified atmosphere containing 5% CO2. After trypsinisation, 5 × 10^4 cultured cells in logarithmic growth were seeded into T25 flasks (Corning, New York) and cultured to allow to adherence. The cells were then incubated with Staurosporine (Santa Cruz, Santa Cruz) and the drugs with a series of concentration as 60, 20, 6.67, 2.22, 0.74, 0.25 and 0.082 l g/mL, respectively. After 24-h treatment, the cells were harvested by cell scraper orderly following by washed once with PBS. The cells were lysed in 150 µL RIPA cell lysis buffer (Santa Cruz, Santa Cruz) and incubated on ice for 30 min. The cellular supernatants were obtained via centrifugation at 12,000 g for 20 min at 4 °C and stored at −80 °C. The TRAP-PCR-ELISA assay was performed using a telomerase detection kit (Roche, Basel, Switzerland) according to the manufacturer’s protocol. In brief, 2 µL of cell extracts were mixed with 48 µL TRAP reaction mixtures. PCR was then initiated at 94 °C, 120 s for predenaturation and performed using 35 cycles each consisting of 94 °C for 30 s, 50 °C for 30 s, 72 °C for 90 s. Then 20 µL of PCR products were hybridised to a digoxigenin (DIG)-labeled telomeric repeat specific detection probe. And the PCR products were immobilised via the biotin-labeled primer to a streptavidin-coated microtiter plate subsequently. The immobilised DNA fragment were detected with a peroxidase-conjugated anti-DIG antibody and visualised following addition of the stop regent. The microtitre plate was assessed on TECAN Infinite M200 microplate reader (Mannedorf, Switzerland) at a wavelength of 490 nm, and the final value were presented as mean ± SD.

[5] = tested on: human normal gastric mucosa cell (GES-1); assay: Proliferative inhibition of human normal cell (MTT); type: cell-based
From the text: In order to determine the selective cell toxicity of selected compounds. We subsequently conducted a proliferative inhibition assay with human normal gastric mucosa cell (GES-1).

[6] = Octanol water partition coefficient, shake flask; type: physicochemical; conditions: octanol/PBS (pH 7.4), pH 7.4, shake flask, octanol/PBS pH 7.4, 37 °C, read-out: Log p (octanole water partition coefficient)
Experimental: Octanole water partition coefficients was measured by the method of shake flask with slight modification. The aqueous phase was replaced by PBS (pH 7.4). First, the phase of octanol and the aqueous were saturated with each other. Then, the mixture containing title compounds was shaken at 37 °C. After 24 h, the mixture was centrifuged at 4000 rpm for 30 min, followed by the measured with ultraviolet spectrophotometer. At last, logP values were calculated.

[7] = GES1, MTT, human normal gastric mucosa cell, read-out: GES-1 IC50

| Compound | IC50 (human glioma cell U87) [µM] | IC50 [1] [µM] | IC50 ([2]; MTT, 48 h exposure, mean ± SD) [µM] | IC50 [3] [µM] | IC50 [4] [µM] | IC50 (telomerase) [µM] | IC50 [5, 7] [mM] | activity against SGC-7901 cells (in words) [3] | IC50 ([5]; Homo sapiens, GES1, read-out: GES-1 IC50) [mM] | logP at 24 h [6] | IC50 ([2]; 48 h) [µM] |
| --- | --- | --- | --- | --- | --- | --- | --- | --- | --- | --- | --- |
| COc1cc(OC)c2c(=O)c(OCCCCN3CCN(C(=O)c4ccc(F)cc4F)CC3)c(-c3cc(OC)c(OC)c(OC)c3)oc2c1 [Compound 5a] | 16.6 ± 1.95 | 33.4 ± 1.56 | 25.5 ± 1.02 | 16.6 ± 1.32 | 28 ± 0.98 | 11.3 ± 0.99 | 4.18 ± 0.6 |  |  |  |  |
| COc1cc(OC)c2c(=O)c(OCCCCN3CCN(C(=O)c4c(F)cccc4Cl)CC3)c(-c3cc(OC)c(OC)c(OC)c3)oc2c1 [Compound 5c] | 25.4 ± 1.55 | 28 ± 1.84 | 9.77 ± 0.62 | 9.31 ± 1.05 | 15.9 ± 1.01 |  |  |  |  |  |  |
| COc1cc(OC)c2c(=O)c(OCCCCN3CCN(C(=O)c4cc([N+](=O)[O-])cc([N+](=O)[O-])c4)CC3)c(-c3cc(OC)c(OC)c(OC)c3)oc2c1 [Compound 5k] | 8.14 ± 0.22 | 21.2 ± 1.53 | 2.94 ± 0.25 | 5.12 ± 0.5 | 4.01 ± 0.38 | 1.44 ± 0.28 |  | good activity | 2.55 ± 0.38 |  |  |
| COc1cc(OC)c2c(=O)c(OCCCCN3CCN(C(=O)c4ccc(Cl)cc4)CC3)c(-c3cc(OC)c(OC)c(OC)c3)oc2c1 [Compound 5h] | 25.6 ± 1.4 | 35.3 ± 1.97 | 22.4 ± 0.87 | 9.22 ± 1 | 14.1 ± 1.27 |  |  |  |  |  |  |
| COc1cc(OC)c2c(=O)c(OCCCCN3CCN(C(=O)c4ccc([N+](=O)[O-])cc4)CC3)c(-c3cc(OC)c(OC)c(OC)c3)oc2c1 [Compound 5g] | 21.6 ± 0.9 | 40.5 ± 1.95 | 17 ± 1.51 | 10.5 ± 1.01 | 23.2 ± 1.83 |  |  |  |  |  |  |
| COc1cc(OC)c2c(=O)c(OCCCCN3CCN(C(=O)c4ccccc4)CC3)c(-c3cc(OC)c(OC)c(OC)c3)oc2c1 [Compound 5j] | 20.3 ± 1.25 | > 60 | 8.3 ± 0.3 | 7.56 ± 1.01 | 7.29 ± 0.82 |  |  | good activity |  | 3.01 |  |
| COc1cc(OC)c2c(=O)c(OCCCCN3CCN(C(=O)c4c(F)cccc4F)CC3)c(-c3cc(OC)c(OC)c(OC)c3)oc2c1 [Compound 5b] | > 60 | 23.4 ± 1.23 | 11.3 ± 0.85 | 10.5 ± 1.08 | 17 ± 0.99 |  |  |  |  |  |  |
| COc1cc(OC)c2c(=O)c(OCCCCN3CCN(C(=O)c4cc(Cl)ccc4[N+](=O)[O-])CC3)c(-c3cc(OC)c(OC)c(OC)c3)oc2c1 [Compound 5l] | 16.2 ± 1.45 | 29.1 ± 1.75 | 3.8 ± 0.31 | 5.81 ± 1.01 | 5.2 ± 0.87 |  |  | good activity |  | 4.82 |  |
| COc1cc(OC)c2c(=O)c(OCCCCN3CCN(C(=O)c4cccc(F)c4)CC3)c(-c3cc(OC)c(OC)c(OC)c3)oc2c1 [Compound 5d] | > 60 | 35.5 ± 1.65 | 31.4 ± 1.73 | 18.5 ± 0.89 | 32 ± 1.53 |  |  |  |  |  |  |
| COc1cc(OC)c2c(=O)c(OCCCCN3CCN(C(=O)c4ccc(C(F)(F)F)cc4)CC3)c(-c3cc(OC)c(OC)c(OC)c3)oc2c1 [Compound 5f] | 18 ± 0.66 | 37.4 ± 1.69 | 14.4 ± 0.8 | 6.97 ± 0.85 | 24.2 ± 1.44 |  | 2.98 ± 0.55 | good activity |  | 3.35 |  |
| COc1cc(OC)c2c(=O)c(OCCCCN3CCN(C(=O)c4ccccc4[N+](=O)[O-])CC3)c(-c3cc(OC)c(OC)c(OC)c3)oc2c1 [Compound 5e] | > 60 | > 60 | 25.1 ± 1.5 | 13.2 ± 0.88 | 31.3 ± 1.63 | 13.3 ± 1.25 | 10 ± 1.22 |  |  |  |  |
| COc1cccc2c1C(=O)c1c(O)c3c(c(O)c1C2=O)C[C@@](O)(C(=O)CO)C[C@@H]3O[C@H]1C[C@H](N)[C@H](O)[C@H](C)O1 [ADM, doxorubicin, reference compound] | 2.24 ± 0.12 | 2.87 ± 0.21 |  | 0.98 ± 0.27 | 0.81 ± 0.06 |  |  |  |  |  | 0.21 ± 0.03 |
